Laboratory results taken from PubChem BioAssay AID2060912 (Molecular Pharmacology Branch, DTP, NCI, 2025).

Tested on: HUVEC/MSC spheroids viability
Assay: Human HUVEC/MSC cell line growth inhibition [KRAS2];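 as to viability, T/C: percent of DMSO vehicle control luminescence so 100% = untreated viability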
Conditions: for IC50: curve of first compound; for viability, T/C: stronger effect = lower value
In short: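 Growth/viability of tumour-free HUVEC–hMSC spheroids was measured after exposure to targeted small molecules and KRAS inhibitors, singly or in combination. Agents were diluted in half-log steps from Cmax-based top concentrations, capped at 10 microM without known Cmax.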

[1] = second compound 0.00949 µM, first compound 0.0316 µM
[2] = second compound 0.00949 µM, first compound 0.1 µM
[3] = second compound 0.00949 µM, first compound 0.316 µM
[4] = second compound 0.00949 µM, first compound 1 µM
[5] = second compound 0.00949 µM, first compound 3.16 µM
[6] = second compound 0.00949 µM, first compound 10 µM
[7] = second compound 0.03 µM, first compound 0.0316 µM
[8] = second compound 0.03 µM, first compound 0.1 µM
[9] = second compound 0.03 µM, first compound 0.316 µM
[10] = second compound 0.03 µM, first compound 1 µM
[11] = second compound 0.03 µM, first compound 3.16 µM
[12] = second compound 0.03 µM, first compound 10 µM
[13] = second compound 0.0949 µM, first compound 0.0316 µM
[14] = second compound 0.0949 µM, first compound 0.1 µM
[15] = second compound 0.0949 µM, first compound 0.316 µM
[16] = second compound 0.0949 µM, first compound 1 µM
[17] = second compound 0.0949 µM, first compound 3.16 µM
[18] = second compound 0.0949 µM, first compound 10 µM
[19] = second compound 0.3 µM, first compound 0.0316 µM
[20] = second compound 0.3 µM, first compound 0.1 µM
[21] = second compound 0.3 µM, first compound 0.316 µM
[22] = second compound 0.3 µM, first compound 1 µM
[23] = second compound 0.3 µM, first compound 3.16 µM
[24] = second compound 0.3 µM, first compound 10 µM
[25] = second compound 0.949 µM, first compound 0.0316 µM
[26] = second compound 0.949 µM, first compound 0.1 µM
[27] = second compound 0.949 µM, first compound 0.316 µM
[28] = second compound 0.949 µM, first compound 1 µM
[29] = second compound 0.949 µM, first compound 3.16 µM
[30] = second compound 0.949 µM, first compound 10 µM
[31] = second compound 3 µM, first compound 0.0316 µM
[32] = second compound 3 µM, first compound 0.1 µM
[33] = second compound 3 µM, first compound 0.316 µM
[34] = second compound 3 µM, first compound 1 µM
[35] = second compound 3 µM, first compound 3.16 µM
[36] = second compound 3 µM, first compound 10 µM

CC1COCCN1c1cc(-c2ccnn2C)c2ccnc(-c3ccn[nH]3)c2n1 (stereo unspecified) + C=CC(=O)N1CCN(c2nc(OCC3CCCN3C)nc3c2CCN(c2cccc4cccc(C)c24)C3)CC1CC#N
IC50 (second compound 0.00949 µM): 1210 nM | IC50 (second compound 0.03 µM): 916 nM | IC50 (second compound 0.0949 µM): 635 nM | IC50 (second compound 0.3 µM): 661 nM | IC50 (second compound 0.949 µM): 362 nM | IC50 (second compound 3 µM): > 3000 nM | viability, T/C (second compound 0.00949 µM, first compound 0.00949 µM): 79.3% | viability, T/C (second compound 0.00949 µM, first compound 0.03 µM): 76.5% | viability, T/C (second compound 0.00949 µM, first compound 0.0949 µM): 77% | viability, T/C (second compound 0.00949 µM, first compound 0.3 µM): 77% | viability, T/C (second compound 0.00949 µM, first compound 0.949 µM): 51.9% | viability, T/C (second compound 0.00949 µM, first compound 3 µM): 42.8% | viability, T/C (second compound 0.03 µM, first compound 0.00949 µM): 87.7% | viability, T/C (second compound 0.03 µM, first compound 0.03 µM): 90.9% | viability, T/C (second compound 0.03 µM, first compound 0.0949 µM): 77.6% | viability, T/C (second compound 0.03 µM, first compound 0.3 µM): 66.6% | viability, T/C (second compound 0.03 µM, first compound 0.949 µM): 49.7% | viability, T/C (second compound 0.03 µM, first compound 3 µM): 37.9% | viability, T/C (second compound 0.0949 µM, first compound 0.00949 µM): 73.5% | viability, T/C (second compound 0.0949 µM, first compound 0.03 µM): 85.3% | viability, T/C (second compound 0.0949 µM, first compound 0.0949 µM): 70.8% | viability, T/C (second compound 0.0949 µM, first compound 0.3 µM): 69.1% | viability, T/C (second compound 0.0949 µM, first compound 0.949 µM): 39.5% | viability, T/C (second compound 0.0949 µM, first compound 3 µM): 37.8% | viability, T/C (second compound 0.3 µM, first compound 0.00949 µM): 66.8% | viability, T/C (second compound 0.3 µM, first compound 0.03 µM): 71.4% | viability, T/C (second compound 0.3 µM, first compound 0.0949 µM): 72% | viability, T/C (second compound 0.3 µM, first compound 0.3 µM): 62.6% | viability, T/C (second compound 0.3 µM, first compound 0.949 µM): 44.2% | viability, T/C (second compound 0.3 µM, first compound 3 µM): 34.8% | viability, T/C (second compound 0.949 µM, first compound 0.00949 µM): 67.7% | viability, T/C (second compound 0.949 µM, first compound 0.03 µM): 65% | viability, T/C (second compound 0.949 µM, first compound 0.0949 µM): 68% | viability, T/C (second compound 0.949 µM, first compound 0.3 µM): 51.5% | viability, T/C (second compound 0.949 µM, first compound 0.949 µM): 45% | viability, T/C (second compound 0.949 µM, first compound 3 µM): 40.1% | viability, T/C (second compound 3 µM, first compound 0.00949 µM): 81.6% | viability, T/C (second compound 3 µM, first compound 0.03 µM): 78.6% | viability, T/C (second compound 3 µM, first compound 0.0949 µM): 86% | viability, T/C (second compound 3 µM, first compound 0.3 µM): 81.2% | viability, T/C (second compound 3 µM, first compound 0.949 µM): 54.5% | viability, T/C (second compound 3 µM, first compound 3 µM): 50.4%

CC1OCC2(CCN(c3cnc(Sc4ccnc(N)c4Cl)c(N)n3)CC2)C1N (stereo unspecified) + C=CC(=O)N1CCN(c2nc(OCC3CCCN3C)nc3c2CCN(c2cccc4cccc(C)c24)C3)CC1CC#N
IC50 (second compound 0.00949 µM): > 10000 nM | IC50 (second compound 0.03 µM): > 10000 nM | IC50 (second compound 0.0949 µM): > 10000 nM | IC50 (second compound 0.3 µM): > 10000 nM | IC50 (second compound 0.949 µM): 5360 nM | IC50 (second compound 3 µM): 387 nM | viability, T/C [1]: 112% | viability, T/C [2]: 102% | viability, T/C [3]: 99.9% | viability, T/C [4]: 82.3% | viability, T/C [5]: 71.1% | viability, T/C [6]: 73.6% | viability, T/C [7]: 109% | viability, T/C [8]: 116% | viability, T/C [9]: 89.8% | viability, T/C [10]: 87.3% | viability, T/C [11]: 66% | viability, T/C [12]: 67.9% | viability, T/C [13]: 98.5% | viability, T/C [14]: 96.4% | viability, T/C [15]: 90% | viability, T/C [16]: 79.5% | viability, T/C [17]: 74.1% | viability, T/C [18]: 66.5% | viability, T/C [19]: 86.7% | viability, T/C [20]: 90.7% | viability, T/C [21]: 89.4% | viability, T/C [22]: 69.1% | viability, T/C [23]: 72.9% | viability, T/C [24]: 56.1% | viability, T/C [25]: 63% | viability, T/C [26]: 79.5% | viability, T/C [27]: 83.2% | viability, T/C [28]: 71.8% | viability, T/C [29]: 60.4% | viability, T/C [30]: 37.9% | viability, T/C [31]: 55.4% | viability, T/C [32]: 67.6% | viability, T/C [33]: 48% | viability, T/C [34]: 35.7% | viability, T/C [35]: 4.99% | viability, T/C [36]: 0.43%

Cn1nccc1Nc1nccc(-c2cc3c(s2)C(C)(C)N(CCN2CCOCC2)C3=O)n1 + C=CC(=O)N1CCN(c2nc(OCC3CCCN3C)nc3c2CCN(c2cccc4cccc(C)c24)C3)CC1CC#N
IC50 (second compound 0.00949 µM): 2880 nM | IC50 (second compound 0.03 µM): 3050 nM | IC50 (second compound 0.0949 µM): 2890 nM | IC50 (second compound 0.3 µM): 3020 nM | IC50 (second compound 0.949 µM): 2420 nM | IC50 (second compound 3 µM): 1130 nM | viability, T/C [1]: 81.1% | viability, T/C [2]: 103% | viability, T/C [3]: 124% | viability, T/C [4]: 109% | viability, T/C [5]: 45.1% | viability, T/C [6]: 6.48% | viability, T/C [7]: 85.3% | viability, T/C [8]: 103% | viability, T/C [9]: 111% | viability, T/C [10]: 96.2% | viability, T/C [11]: 48.6% | viability, T/C [12]: 5.51% | viability, T/C [13]: 93.1% | viability, T/C [14]: 119% | viability, T/C [15]: 106% | viability, T/C [16]: 86.1% | viability, T/C [17]: 47.6% | viability, T/C [18]: 9.65% | viability, T/C [19]: 77.7% | viability, T/C [20]: 85.8% | viability, T/C [21]: 99.6% | viability, T/C [22]: 91% | viability, T/C [23]: 48.5% | viability, T/C [24]: 3.83% | viability, T/C [25]: 76.7% | viability, T/C [26]: 91.2% | viability, T/C [27]: 93.9% | viability, T/C [28]: 92.1% | viability, T/C [29]: 38.4% | viability, T/C [30]: 1.39% | viability, T/C [31]: 90.6% | viability, T/C [32]: 107% | viability, T/C [33]: 93.8% | viability, T/C [34]: 55.7% | viability, T/C [35]: 2.04% | viability, T/C [36]: 0.32%
